Experimental findings from patent publication US20070117770A1, “Human ribosomal DNA (rDNA) and ribosomal RNA (rRNA) nucleic acids and uses thereof” (Cylene Pharmaceuticals, Inc., priority 2005, published 2007) are described below.

Molecules are shown by their SMILES.

Test in all cases: Protein kinase inhibition assay
Common to all, as to assay type: biochemical

The target of one assay is ROCK-II(r) (Rattus norvegicus, UniProt Q62868). To be noted: read-out: percent residual activity of ROCK-II(r). As for the experimental part:
(§1) Certain compounds were tested for activity in protein kinase inhibition assays. All substrates were dissolved and diluted to working stocks in de-ionized water, apart from histone H1 (10× working stock in 20 mM MOPS pH 7.0), PDKtide (10× working stock in 50 mM Tris pH 7.0) ATF2 (which is typically stored at a 20× working stock in 50 mM Tris pH 7.5, 150 mM NaCl, 0.1 mM EGTA, 0.03% Brij-35, 50% glycerol, 1 mM benzamidine, 0.2 mM PMSF and 0.1% R-mercaptoethanol), KKLNRTLSFAEPG (SEQ ID NO:203) and RRRLSFAEPG (SEQ ID NO:204) (50 mM HEPES pH 7.4) and GGEEEEYFELVKKKK (SEQ ID NO:205) (20 mM MOPS pH 7.0). All kinases were pre-diluted to a 10× working concentration prior to addition into the assay. The composition of the dilution buffer for each kinase is detailed below.
In a final reaction volume of 25 μl, ROCK-II (r) (5-10 mU) is incubated with 50 mM Tris pH 7.5, 0.1 mM EGTA, 30 μM […] (SEQ ID NO:222), 10 mM MgAcetate and [gamma-33P-ATP] (specific activity approx. 500 cpm/pmol, concentration as required). The reaction is initiated by the addition of the MgATP mix. After incubation for 40 minutes at room temperature, the reaction is stopped by the addition of 5 μl of a 3% phosphoric acid solution. 10 μl of the reaction is then spotted onto a P30 filtermat and washed three times for 5 minutes in 75 mM phosphoric acid and once in methanol prior to drying and scintillation counting.

The target in a further assay is PAR-1Bα(h) (Homo sapiens, UniProt Q7KZI7). To be noted: read-out: percent residual activity of PAR-1Bα(h). As for the experimental part:
as §1
In a final reaction volume of 25 μl, PAR-1Bα (h) (5-10 mU) is incubated with 8 mM MOPS pH 7.0, 0.2 mM EDTA, 100 μM […] (SEQ ID NO:213), 10 mM MgAcetate and [gamma-33P-ATP] (specific activity approx. 500 cpm/pmol, concentration as required). The reaction is initiated by the addition of the MgATP mix. After incubation for 40 minutes at room temperature, the reaction is stopped by the addition of 5 μl of a 3% phosphoric acid solution. 10 pi of the reaction is then spotted onto a P30 filtermat and washed three times for 5 minutes in 75 mM phosphoric acid and once in methanol prior to drying and scintillation counting.

A further assay has as its target Abl(T315I)(h) (Homo sapiens, UniProt P00519, T315I). To be noted: read-out: percent residual activity of Abl(T315I)(h). The protocol: as §1
In a final reaction volume of 25 μl, Abl (T3151) (h) (5-10 mU) is incubated with 8 mM MOPS pH 7.0, 0.2 mM EDTA, 50 μM EAIYAAPFAKKK (SEQ ID NO:206), 10 mM MgAcetate and [gamma-33P-ATP] (specific activity approx. 500 cpm/pmol, concentration as required). The reaction is initiated by the addition of the MgATP mix. After incubation for 40 minutes at room temperature, the reaction is stopped by the addition of 5 μl of a 3% phosphoric acid solution. 10 μl of the reaction is then spotted onto a P30 filtermat and washed three times for 5 minutes in 75 mM phosphoric acid and once in methanol prior to drying and scintillation counting.

The next assay addresses ZIPK(h) (Homo sapiens, UniProt O43293). To be noted: read-out: percent residual activity of ZIPK(h). The protocol:
as §1
(§2) In a final reaction volume of 25 μl, ZIPK (h) (5-10 mU) is incubated with 8 mM MOPS pH 7.0, 0.2 mM EDTA, 250 μM KKLNRTLSFAEPG (SEQ ID NO:203), 10 mM MgAcetate and [gamma-33P-ATP] (specific activity approx. 500 cpm/pmol, concentration as required). The reaction is initiated by the addition of the MgATP mix. After incubation for 40 minutes at room temperature, the reaction is stopped by the addition of 5 μl of a 3% phosphoric acid solution. 10 μl of the reaction is then spotted onto a P30 filtermat and washed three times for 5 minutes in 75 mM phosphoric acid and once in methanol prior to drying and scintillation counting.

In another assay the target is SGK3(h) (Homo sapiens, UniProt Q96BR1). To be noted: read-out: percent residual activity of SGK3(h). The protocol: as §1
as §2, with “SGK3” for “ZIPK”, “GRPRTSSFAEGKK” for “KKLNRTLSFAEPG”, “NO:226),” for “NO:203),”

For a further assay, the target named is IRAK1(h) (Homo sapiens, UniProt P51617). To be noted: read-out: percent residual activity of IRAK1(h). A digest of the protocol:
(§3)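 Enzyme and substrate handling: every kinase enters as a 10× working dilution made in a buffer specific to that kinase, and substrates go in from working stocks, water-based except where a buffered stock (MOPS, Tris or HEPES, pH 7.0–7.5) is needed.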

A further assay addresses WNK3(h) (Homo sapiens, UniProt Q9BYP7). To be noted: read-out: percent residual activity of WNK3(h). A digest of the protocol:
as §3

A further assay has as its target ARK5(h) (Homo sapiens, UniProt O60285). To be noted: read-out: percent residual activity of ARK5(h). An outline of the steps:
as §3

A further assay has as its target GRK6(h) (Homo sapiens, UniProt P43250). To be noted: read-out: percent residual activity of GRK6(h). A digest of the protocol:
as §3

IRAK1(h), sequence (P51617 whole entry): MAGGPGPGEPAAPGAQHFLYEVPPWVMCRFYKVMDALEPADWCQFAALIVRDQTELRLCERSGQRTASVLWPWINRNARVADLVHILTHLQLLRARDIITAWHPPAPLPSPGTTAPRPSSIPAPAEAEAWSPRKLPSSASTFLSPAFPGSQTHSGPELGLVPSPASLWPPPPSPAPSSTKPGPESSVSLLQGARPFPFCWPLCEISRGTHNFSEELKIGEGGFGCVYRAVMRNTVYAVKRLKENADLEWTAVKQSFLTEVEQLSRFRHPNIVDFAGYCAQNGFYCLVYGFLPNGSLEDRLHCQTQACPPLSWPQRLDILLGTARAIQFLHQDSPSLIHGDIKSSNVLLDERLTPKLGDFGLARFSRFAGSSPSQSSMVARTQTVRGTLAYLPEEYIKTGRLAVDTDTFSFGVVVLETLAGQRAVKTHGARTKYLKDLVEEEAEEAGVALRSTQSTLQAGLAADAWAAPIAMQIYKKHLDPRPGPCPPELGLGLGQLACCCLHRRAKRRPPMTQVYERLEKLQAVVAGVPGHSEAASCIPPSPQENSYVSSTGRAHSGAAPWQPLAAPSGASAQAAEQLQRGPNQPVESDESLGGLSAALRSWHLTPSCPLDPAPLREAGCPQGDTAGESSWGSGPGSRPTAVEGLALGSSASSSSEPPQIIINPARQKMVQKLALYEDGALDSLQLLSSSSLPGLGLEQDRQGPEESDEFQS
SGK3(h), sequence (Q96BR1 whole entry): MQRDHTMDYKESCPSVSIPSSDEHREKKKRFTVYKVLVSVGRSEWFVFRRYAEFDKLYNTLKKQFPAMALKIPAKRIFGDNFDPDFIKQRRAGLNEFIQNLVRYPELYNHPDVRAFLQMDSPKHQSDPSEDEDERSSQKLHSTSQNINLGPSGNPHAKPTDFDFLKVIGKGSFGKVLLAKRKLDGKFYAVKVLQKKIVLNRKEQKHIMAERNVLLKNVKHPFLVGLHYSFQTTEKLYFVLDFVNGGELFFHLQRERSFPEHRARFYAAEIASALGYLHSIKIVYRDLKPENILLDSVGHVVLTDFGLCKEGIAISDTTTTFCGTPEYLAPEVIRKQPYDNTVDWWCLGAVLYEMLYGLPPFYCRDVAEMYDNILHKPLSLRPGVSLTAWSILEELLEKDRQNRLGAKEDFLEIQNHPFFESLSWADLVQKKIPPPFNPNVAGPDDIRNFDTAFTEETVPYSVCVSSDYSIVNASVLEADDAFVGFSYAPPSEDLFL
ARK5(h), sequence (O60285 whole entry): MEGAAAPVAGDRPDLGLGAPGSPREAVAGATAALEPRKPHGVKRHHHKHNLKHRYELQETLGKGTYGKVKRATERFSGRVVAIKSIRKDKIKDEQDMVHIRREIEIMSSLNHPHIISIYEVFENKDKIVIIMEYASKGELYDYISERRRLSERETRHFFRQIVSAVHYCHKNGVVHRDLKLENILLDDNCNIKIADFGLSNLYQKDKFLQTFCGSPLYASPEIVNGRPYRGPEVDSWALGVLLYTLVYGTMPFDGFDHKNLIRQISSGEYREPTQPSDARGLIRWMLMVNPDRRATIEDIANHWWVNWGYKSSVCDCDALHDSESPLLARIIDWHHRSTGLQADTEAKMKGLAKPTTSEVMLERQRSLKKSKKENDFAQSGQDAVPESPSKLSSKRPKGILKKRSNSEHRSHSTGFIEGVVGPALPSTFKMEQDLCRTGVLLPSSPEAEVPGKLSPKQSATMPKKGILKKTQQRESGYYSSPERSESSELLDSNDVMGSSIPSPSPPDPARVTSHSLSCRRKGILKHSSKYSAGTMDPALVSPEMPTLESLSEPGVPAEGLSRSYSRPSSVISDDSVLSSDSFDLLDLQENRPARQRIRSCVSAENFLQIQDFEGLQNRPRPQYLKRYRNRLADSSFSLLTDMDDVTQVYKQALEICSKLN
PAR-1Bα(h), sequence (Q7KZI7 1-725 isoform Q7KZI7-4): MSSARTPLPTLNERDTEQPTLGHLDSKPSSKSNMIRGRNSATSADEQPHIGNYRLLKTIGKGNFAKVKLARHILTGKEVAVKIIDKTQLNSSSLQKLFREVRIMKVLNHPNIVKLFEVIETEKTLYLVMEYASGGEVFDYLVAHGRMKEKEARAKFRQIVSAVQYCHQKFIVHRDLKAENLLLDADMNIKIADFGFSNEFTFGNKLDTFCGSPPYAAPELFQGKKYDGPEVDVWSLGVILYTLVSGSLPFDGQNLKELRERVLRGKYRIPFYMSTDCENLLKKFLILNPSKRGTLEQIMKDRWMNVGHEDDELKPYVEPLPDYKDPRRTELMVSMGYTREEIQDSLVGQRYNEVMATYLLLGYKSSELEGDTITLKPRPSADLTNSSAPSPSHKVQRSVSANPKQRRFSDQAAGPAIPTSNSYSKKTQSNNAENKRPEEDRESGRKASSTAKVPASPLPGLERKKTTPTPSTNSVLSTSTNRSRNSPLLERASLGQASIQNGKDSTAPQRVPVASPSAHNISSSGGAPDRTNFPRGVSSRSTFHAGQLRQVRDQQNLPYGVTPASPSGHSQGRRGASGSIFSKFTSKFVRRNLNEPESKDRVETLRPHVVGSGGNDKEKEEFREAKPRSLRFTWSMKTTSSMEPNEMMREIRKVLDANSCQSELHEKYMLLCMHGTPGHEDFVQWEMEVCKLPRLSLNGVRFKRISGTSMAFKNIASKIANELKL
ZIPK(h), sequence (O43293 whole entry): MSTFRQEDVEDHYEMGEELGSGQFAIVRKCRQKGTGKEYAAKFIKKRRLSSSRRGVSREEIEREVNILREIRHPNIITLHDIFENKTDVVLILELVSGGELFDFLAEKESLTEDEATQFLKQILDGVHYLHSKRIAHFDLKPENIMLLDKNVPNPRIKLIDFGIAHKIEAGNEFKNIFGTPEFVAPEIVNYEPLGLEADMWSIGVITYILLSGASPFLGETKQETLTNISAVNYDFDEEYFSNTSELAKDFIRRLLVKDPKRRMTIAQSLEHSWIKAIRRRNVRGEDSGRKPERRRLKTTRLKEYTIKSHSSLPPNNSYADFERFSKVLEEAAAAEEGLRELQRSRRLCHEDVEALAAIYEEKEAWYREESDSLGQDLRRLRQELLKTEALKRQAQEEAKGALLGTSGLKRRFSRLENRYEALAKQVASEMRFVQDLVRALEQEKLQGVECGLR
WNK3(h), sequence (Q9BYP7 whole entry): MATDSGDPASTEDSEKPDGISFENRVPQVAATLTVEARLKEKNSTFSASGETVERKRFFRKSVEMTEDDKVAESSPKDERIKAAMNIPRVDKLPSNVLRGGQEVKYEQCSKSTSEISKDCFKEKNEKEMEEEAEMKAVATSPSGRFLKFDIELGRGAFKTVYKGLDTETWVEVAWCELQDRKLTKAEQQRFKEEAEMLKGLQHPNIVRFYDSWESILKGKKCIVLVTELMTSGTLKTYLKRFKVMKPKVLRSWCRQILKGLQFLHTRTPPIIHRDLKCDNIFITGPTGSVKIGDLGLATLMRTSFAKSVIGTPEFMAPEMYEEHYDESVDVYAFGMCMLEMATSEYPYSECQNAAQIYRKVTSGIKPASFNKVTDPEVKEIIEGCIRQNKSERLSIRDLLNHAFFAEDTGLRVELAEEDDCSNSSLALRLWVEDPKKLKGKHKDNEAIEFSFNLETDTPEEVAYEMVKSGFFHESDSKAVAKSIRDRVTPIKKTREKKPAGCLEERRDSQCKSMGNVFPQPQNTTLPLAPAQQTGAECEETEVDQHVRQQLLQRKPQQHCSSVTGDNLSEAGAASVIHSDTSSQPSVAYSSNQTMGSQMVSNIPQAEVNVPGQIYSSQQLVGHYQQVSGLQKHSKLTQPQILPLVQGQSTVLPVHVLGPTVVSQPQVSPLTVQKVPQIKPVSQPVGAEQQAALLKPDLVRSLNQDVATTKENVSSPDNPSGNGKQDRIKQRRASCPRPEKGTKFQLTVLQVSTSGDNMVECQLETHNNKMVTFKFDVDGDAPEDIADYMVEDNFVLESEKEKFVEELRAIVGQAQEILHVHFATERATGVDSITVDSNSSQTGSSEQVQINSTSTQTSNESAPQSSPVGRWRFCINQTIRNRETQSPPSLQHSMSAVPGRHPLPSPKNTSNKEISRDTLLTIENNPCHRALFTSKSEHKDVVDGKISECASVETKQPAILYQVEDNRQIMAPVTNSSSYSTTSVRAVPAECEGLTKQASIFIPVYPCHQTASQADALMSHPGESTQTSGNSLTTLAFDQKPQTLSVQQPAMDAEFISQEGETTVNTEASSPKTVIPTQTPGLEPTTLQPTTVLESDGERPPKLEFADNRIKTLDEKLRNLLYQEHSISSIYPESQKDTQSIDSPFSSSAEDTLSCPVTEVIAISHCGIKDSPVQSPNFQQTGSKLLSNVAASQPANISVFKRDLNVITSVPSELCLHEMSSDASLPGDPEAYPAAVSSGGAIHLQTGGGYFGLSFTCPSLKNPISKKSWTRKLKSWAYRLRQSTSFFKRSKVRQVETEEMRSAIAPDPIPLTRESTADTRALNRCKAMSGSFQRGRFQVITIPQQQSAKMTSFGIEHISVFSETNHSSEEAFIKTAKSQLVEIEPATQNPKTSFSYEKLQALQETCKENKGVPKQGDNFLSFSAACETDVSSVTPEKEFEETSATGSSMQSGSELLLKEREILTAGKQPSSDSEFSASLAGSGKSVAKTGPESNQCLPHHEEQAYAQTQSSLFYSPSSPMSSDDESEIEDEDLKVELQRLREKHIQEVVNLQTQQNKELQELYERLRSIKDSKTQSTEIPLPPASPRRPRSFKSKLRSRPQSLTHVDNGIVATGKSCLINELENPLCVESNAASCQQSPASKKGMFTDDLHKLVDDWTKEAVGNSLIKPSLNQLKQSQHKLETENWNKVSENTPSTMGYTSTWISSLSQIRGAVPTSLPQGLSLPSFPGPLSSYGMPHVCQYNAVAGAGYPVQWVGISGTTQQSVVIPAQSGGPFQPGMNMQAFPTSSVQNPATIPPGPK

In the case of `CN1CCCC1CCNC(=O)c1cn2c3c(c(N4CCC(c5cnccn5)C4)c(F)cc3c1=O)Oc1cc3ccccc3cc1-2` (stereo not drawn) [Compound A-1], the remaining activity at 2.5 µM on ROCK-II(r) amounted to 48%; on PAR-1Bα(h) it was 88%; on Abl(T315I)(h), 52%; on ZIPK(h), 27%; on SGK3(h), 44%; on IRAK1(h), 86%. The figures for the remaining activity at 2.5 µM at WNK3(h), at ARK5(h) and at GRK6(h) were 98%, 79% and 90%, respectively.

As for `CC(=O)N1CCN(c2ccc3c(=O)c(C(=O)NCCN4CCCC4)c4n(C)c5ccccc5n4c3n2)CC1` [Compound B-1], the remaining activity at 2.5 µM came out at 103% on ROCK-II(r); 100% on PAR-1Bα(h); 106% at Abl(T315I)(h); 116% at ZIPK(h); 128% on SGK3(h); 102% at IRAK1(h). Further, the figures for the remaining activity at 2.5 µM at WNK3(h), on ARK5(h) and at GRK6(h) were 120%, 104% and 83%, respectively.
